Measured values taken from patent US8592374B2, “Neurotrophic peptides” (Research Foundation for Mental Hygiene, Inc., priority 2007, dated 2013).
Entries after “also recorded” stand apart in the source; their conditions may differ. Peptide text beside a SMILES is read from it. * marks the point of attachment. Adamantane1carbonyl = O=C(C12CC3CC(CC(C3)C1)C2)*; X1 = NC(=O)C12CC3CC(CC(N*)(C3)C1)C2

How the values were obtained:
[1] = General examination (physical state, body weight, exploratory activity, swim speed, floating); type: in vivo, mice; conditions: 25 nmol/day for 35 days
Description: All in vivo studies for characterization of compounds (stereology and behavioral analysis) were performed on 8-10-month-old female retired breeders of C57Bl6 background. Animals were acclimatized for at least 3 weeks to exclude occasional pregnant mice from the studies. Mice were group-housed (3 animals per cage) with a 12:12 hours light/dark cycle and with free access to food and water.
(§1) For the compound treatment, mice (8 animals/group) received subcutaneous implants of extended release depot pellets containing P21 or P22 at 25 nmol/day for 35 days of continuous dosing (Innovative Research of America, USA). For the control group (8 animals), pellets consisted of the carrier polymer only. Mice were anesthetized with 2.5% Avertin (0.38 ml for a 25 g animal). Under sterile conditions, pellets were implanted subcutaneously along the anterolateral aspect of the right shoulder with a precision trochar (Innovative Research of America). After recovery of anesthesia, animals were transferred to the animal colony. No complications associated with the implantation and treatment were observed. All procedures on animals were conducted in accordance with approved protocols from our Institutional Animal Welfare Committee.
The physical state and condition of animals were carefully monitored throughout the treatment by evaluating grooming, physical state and clasping reflex. Body weight was also recorded.
The test used was an adaptation of the procedure previously described by Sargolini and collaborators (Sargolini, F., et al. Behav Brain Res 138 (2003):153-63). The testing apparatus was a classic open field (i.e. a PVC square arena, 50×50 cm, with walls 40 cm high). The open field was placed in a part of the room separated from the experimentator with a black opaque curtain. The open field was surmounted by a video camera connected to a computer. Three objects were employed in this task. The general procedure consisted of three different phases: a familiarization phase (1 session of 20 min), a sample phase, and a test phase. On the first days, mice were individually submitted to the familiarization session during which they were introduced in the empty arena in order to become familiar with the apparatus. This familiarization session allowed to record a baseline level of locomotor activity (measuring the distance covered in the open field) and of anxiety (measuring the time the animals spent in the centre of the arena during the first five minutes). On the second day each mouse was first submitted to the sample phase (session 1, ten minutes) for which two identical objects were placed in a symmetric position from the centre of the arena. After a 15 minute delay during which the mouse returned to its home cage, it was reintroduced in the arena to perform the test phase (session 2, 10 min). The mouse was then exposed to two objects: a familiar object (previously presented during the sample phase) and a new object, placed at the same location as during the sample phase. Data collection was performed using a video tracking system (Smart version 2.0.14 software, Pan Lab/San Diego Instruments). Object discrimination was calculated as follows: OD=(time spent close to new object)/(time spent close to new object)+(time spent close to old object)×100

normal adult mice [2] = assay: One-trial object recognition test; type: in vivo; conditions: 25 nmol/day, test phase after 15 minute delay
Description: as §1
In the one-trial object recognition task, animals are exposed to two different objects which they have to identify as novel or familiar based on the memory of an earlier experience with one of the two objects they encountered in the same open field. The familiar object is explored shorter than the novel encountered one because the representation of the former is still available in memory. The one-trial object recognition task tests some aspects of episodic memory but is limited to memory of an object (what), the location of an object (where), and the context in which it was encountered (which). However, the temporal dimension of the episode remains inaccessible to the experimentator, and because of this reason this task in animals is considered a test of short term memory.
(§2) The test used was an adaptation of the procedure previously described by Sargolini and collaborators (Sargolini, F., et al. Behav Brain Res 138 (2003):153-63). The testing apparatus was a classic open field (i.e. a PVC square arena, 50×50 cm, with walls 40 cm high). […] Object discrimination was calculated as follows: OD=(time spent close to new object)/(time spent close to new object)+(time spent close to old object)×100

normal adult mice [3] = assay: Open field, time in the centre of the arena (anxiety); type: in vivo; conditions: 25 nmol/day, first five minutes of familiarization session
Description: as §1
as §2, with “high). The open field was placed in a part of the room separated from the experimentator with a black opaque curtain.” for “high).”

[4] = tested on: adult hippocampal progenitors in the dentate gyrus; assay: Neurogenesis in the DG (BrdU-positive and BrdU/NeuN-double-positive cells); type: in vivo, mice; conditions: 25 nmol/day for 35 days
Description: as §1
To investigate neurogenesis, BrdU (Sigma, USA) was given as two daily i.p. injections (100 mg/kg/dose) for five days starting on day 2 of compounds treatment.
At the end of the behavioral experiment, animals were anesthetized with an overdose of sodium pentobarbital (120 mg/kg) and transcardially perfused with 0.1 M phosphate buffered saline (PBS). After perfusion, the brains were removed from the skull, the left hemisphere was immediately frozen for future biochemical analysis and the right hemisphere was immersion fixed in 4% paraformaldehyde in 0.1 M PBS for at least 24 hours at room temperature. Tissues were equilibrated and stored in 30% sucrose solution at 4° C. until sectioning. The brains were sectioned sagittaly on a freezing sliding microtome at 40 μm through the entire hippocampus and the sections were stored in glycol anti-freeze solution (Ethylene glycol, glycerol and 0.1 M PBS in 3:3:4 ratio) at −20° C. until further processing.
For double labeling of BrdU and NeuN, brain sections were pretreated with 2 M HCl at 37° C. for 30 min and neutralized with 0.1 M borate buffer (pH 8.5) for 10 minutes. […]
Neurogenesis in the dentate gyrus was evaluated by counting the number of BrdU-positive and BrdU/NeuN-double-positive cells in the dentate gyrus (DG). The number of positive cells was determined in every fifth section in a series of 40 μm sagittal sections throughout the DG using unbiased sterology. All BrdU-positive cells in the subgranular zone (SGZ) and granule cell layer (GCL) were counted using a fluorescent microscope (Nikon Eclipse 90i, Nikon Corporation, Japan). Double labeled cells were assessed by a confocal imaging system (D-Eclipse C1, Nikon Corporation). […] For each brain, at least 100 cells were counted based on coefficient of error determinations.

normal adult mice [5] = assay: Spatial reference memory task in the water maze; type: in vivo
Description: as §1
Spatial reference learning and memory were evaluated in the water maze using a procedure adapted from that previously described by Morris et al. (Morris, R. G., et al. Nature 297 (1982): 681-3). The test required that mice used a spatial navigational strategy based on a spatial representation of the environment to find a fixed submerged escape platform. The procedure was performed in a 180 cm diameter circular tank. The pool was filled with water (21±1° C.) made opaque by adding white non-toxic paint. Acquisition started with the escape platform (15 cm diameter submerged 1 cm below water surface) in the Northwest quadrant and each animal was given 90 s to find the platform. […] At the end of each trial, the mouse was left on the platform for 20 seconds, then dried and returned to its home cage until the next trial. Five such acquisition trials were given on each day for four consecutive days. A test for retention, or probe trial (PT), was given 24 hours later. During the probe trial the mouse was allowed to swim in the tank without the escape platform for 60 seconds. This was followed by second and third probe trials 15 and 30 days after the first probe trial.
The measures of learning were the time and distance covered to reach the escape platform. For the probe trial, the tank was divided into four imaginary quadrants and a small zone where the escape platform had been. The measure of retention was calculated as the ratio of time spent or distance covered in target quadrant over that in the three other quadrants.
Mouse behavior in the water maze was monitored by a Samsung Digital Camera (SDC 4304) mounted to the ceiling and tracked and timed by a SMART (Pan Lab/San Diego Instruments) version 2.0.14 software.

[6] = General examination (physical state, body weight, exploratory activity, swim speed, floating); type: in vivo, mice; conditions: 25 nmol/day for 35 days; remark: listed apart in the source
human CNTF receptor = target: T1, human CNTF receptor (Homo sapiens, UniProt P26992); conditions: cited from earlier work
T1 sequence (P26992 23-342): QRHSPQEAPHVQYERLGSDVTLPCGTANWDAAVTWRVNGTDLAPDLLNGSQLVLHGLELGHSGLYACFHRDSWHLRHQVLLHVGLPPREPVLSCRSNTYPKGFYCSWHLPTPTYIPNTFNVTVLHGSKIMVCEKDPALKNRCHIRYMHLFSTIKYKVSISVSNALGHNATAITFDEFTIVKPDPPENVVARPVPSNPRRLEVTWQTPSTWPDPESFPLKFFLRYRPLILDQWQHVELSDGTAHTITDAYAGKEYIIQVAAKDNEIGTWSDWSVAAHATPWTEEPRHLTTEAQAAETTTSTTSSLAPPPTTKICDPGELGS

[7] = tested on: embryonic chick ciliary neurons; conditions: embryonic chick ciliary neurons in culture; cited from earlier work
[8] = cited from earlier work
AHPs = assay: Cell-based assay for differentiation of AHPs with CNTF (βIII-tubulin/DAPI); conditions: 1 hr fixation
Description: βIII-tubulin antigenicity is compromised by fixation, although longer fixation improves attachment to the plates. Therefore, plates with different coatings for their suitability to be used in differentiation assay using CNTF (0.1, 1, 10, 100 ng/ml) were tested. Coating matrices tested: • poly D-lysine • poly D-lysine/laminin • poly L-ornithine/laminin • polyethyleneimine • collagen I • fibronectin The best immunostaining for βIII-tubulin was with 10 min fixation. However, since less cells were lost with 1 hr fixation, the differentiation assay with CNTF was performed with 1 hr fixation. The best differentiation was achieved on polyethyleneimine coated plates using the ratio of βIII-tubulin immunostaining to DAPI nuclear staining (cell number) as % of control as a relative measure of differentiation.

CC(C)C[C@H](NC(=O)CNC(=O)CNC(=O)[C@H](CC(=O)O)NC(=O)C12CC3CC(CC(C3)C1)C2)C(=O)NC12CC3CC(C1)CC(C(N)=O)(C3)C2 [Peptide P22, 1-AdCO-DGGL^AG-NH2] (Adamantane1carbonyl-DGGL-X1)
exploratory behavior / exploratory activity ([1]; open field): no alteration; also recorded: did not induce any effect
body weight ([1]; subcutaneous pellets): no alteration; also recorded: did not induce any effect
general physical state ([1]; subcutaneous pellets): no alteration
time exploring the new object versus the familiar object (normal adult mice [2]): did not preferentially explore the novel object
level of anxiety (time in the center of the open field) (normal adult mice [3]): spent more time in the center of the open field than control animals; also recorded: reduced anxiety level
BrdU positive cells in the DG (GCL and SGZ) [4]: No significant alteration in neurogenesis
BrdU/NeuN positive cells in the DG (GCL) [4]: No significant changes
effect in the probe trials (normal adult mice [5]; three probe trials): No statistically significant effect
escape latencies to reach the submerged platform (learning) (normal adult mice [5]; training day 2 to 4, compared to control group): significantly reduced; also recorded: increased performance in the learning of spatial memory task
floating behavior in the water maze task (sign of depression or locomotor impairment) [6]: no floating behavior was observed
swim speed ([6]; water maze): no alteration; also recorded: did not induce any effect

B1: recombinant rat CNTF: recombinant rat ciliary neurotrophic factor (protein, UniProt P20294 1-200, looked up)
Ciliary neurotrophic factor: MAFAEQTPLTLHRRDLCSRSIWLARKIRSDLTALMESYVKHQGLNKNINLDSVDGVPVASTDRWSEMTEAERLQENLQAYRTFQGMLTKLLEDQRVHFTPTEGDFHQAIHTLMLQVSAFAYQLEELMVLLEQKIPENEADGMPATVGDGGLFEKKLWGLKVLQELSQWTVRSIHDLRVISSHQMGISALESHYGAKDKQM
affinity for the human CNTF receptor relative to human CNTF (human CNTF receptor): higher affinity
biological activity in supporting survival and neurite outgrowth, relative to recombinant human CNTF [7]: four times better

B2: CNTF: Ciliary neurotrophic factor, a survival factor for various neuronal cell types; 200 amino acid protein (protein, UniProt P26441 1-200, looked up)
chain: MAFTEHSPLTPHRRDLCSRSIWLARKIRSDLTALTESYVKHQGLNKNINLDSADGMPVASTDQWSELTEAERLQENLQAYRTFHVLLARLLEDQQVHFTPTEGDFHQAIHTLLLQVAAFAYQIEELMILLEYKIPRNEADGMPINVGDGGLFEKKLWGLKVLQELSQWTVRSIHDLRFISSHQTGIPARGSHYIANNKKM
modifications: full-length
notes: Ciliary neurotrophic factor, a survival factor for various neuronal cell types; 200 amino acid protein
side effects of administration in human clinical trials [8]: anorexia, skeletal muscle loss, hyperalgesia, cramps, and muscle pain
βIII-tu/DAPI (% of Control) (100 ng/ml CNTF) (AHPs; coating poly D-lysine): 175 % of Control
βIII-tu/DAPI (% of Control) (100 ng/ml CNTF) (AHPs; coating poly D-lysine/laminin): 240 % of Control
βIII-tu/DAPI (% of Control) (100 ng/ml CNTF) (AHPs; coating poly L-ornithine/laminin): 330 % of Control
βIII-tu/DAPI (% of Control) (100 ng/ml CNTF) (AHPs; coating poly ethyleneimine): 480 % of Control
